# Source: patent US10508109B2 (priority 2015, dated 2019)
# Counter-ions that a name gives are not always drawn. Like-named read-outs stand apart in the source and are kept apart here.
# Key:
# A549 = assay: Cell-based assay, anti-proliferative activity (Cell Counting Kit-8, 72 hours); settings: Homo sapiens, read-out: A549 IC50
# How it was run: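 After compound exposure of cells in 96-well plates, growth was measured colorimetrically and converted into IC50 values.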
# SUV39H2 = SUV39H2 (Homo sapiens (Human), UniProt Q9H5I1); assay: biochemical; type: biochemical; settings: 3H-SAM 100 nM, H3 Histone Peptide 350 nM, room temperature 3 hours
# How it was run: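 Scintillation proximity format: reactions were halted with streptavidin SPA beads (50 μg/well final) after 3 h at room temperature with enzyme dosed by lot-specific activity.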
# [1] = A549 cells, 72 hours exposure, Cell Counting Kit-8
# Chain of SUV39H2 (Q9H5I1 whole entry): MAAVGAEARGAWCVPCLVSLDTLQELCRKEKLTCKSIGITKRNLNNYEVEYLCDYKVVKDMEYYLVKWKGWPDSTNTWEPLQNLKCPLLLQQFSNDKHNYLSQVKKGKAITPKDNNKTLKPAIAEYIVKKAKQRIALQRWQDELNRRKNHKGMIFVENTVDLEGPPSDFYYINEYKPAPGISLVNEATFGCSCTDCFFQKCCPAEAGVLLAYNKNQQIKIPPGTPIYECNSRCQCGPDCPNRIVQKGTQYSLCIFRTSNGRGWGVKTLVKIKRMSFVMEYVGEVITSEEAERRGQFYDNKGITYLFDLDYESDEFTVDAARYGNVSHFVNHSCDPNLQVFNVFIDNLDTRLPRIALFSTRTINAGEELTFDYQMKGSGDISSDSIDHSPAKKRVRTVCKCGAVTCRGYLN
SMILES,IC50 (A549; [1]),IC50 (SUV39H2),"IC50 (A549; A549, 72 h)"
"COc1cc(OC)c(-c2cn3cnc(N4CCN(S(=O)(=O)C5CC5)CC4)cc3n2)cc1Cl [Example 390, 2-(5-chloro-2,4-dimethoxyphenyl)-7-(4-(cyclopropylsulfonyl)piperazin-1-yl)imidazo[1,2-c]pyrimidine]",390 nM,99.6 nM,
"COc1cc(OC)c(-c2cn3ccc(N[C@H]4CC[C@H](NCc5ccccc5O)CC4)cc3n2)cc1Cl [Example 420, 2-((((1r,4r)-4-((2-(5-chloro-2,4-dimethoxyphenyl)imidazo[1,2-a]pyridin-7-yl)amino)cyclohexyl)amino)methyl)phenol]",720 nM,64.6 nM,
"COc1cc(OC)c(-c2cn3ccc(N4CCN(c5nc(N)nc(N6CCOCC6)n5)CC4)cc3n2)cc1Cl [Example 379, 4-(4-(2-(5-chloro-2,4-dimethoxyphenyl)imidazo[1,2-a]pyridin-7-yl)piperazin-1-yl)-6-morpholino-1,3,5-triazin-2-amine]",420 nM,26.9 nM,
"COc1cc(OC)c(-c2cn3ccc(N4CCN(C(C)=O)C(C)C4)cc3n2)cc1Cl (centres unmarked) [Example 309, 1-(4-(2-(5-chloro-2,4-dimethoxyphenyl)imidazo[1,2-a]pyridin-7-yl)-2-methylpiperazin-1-yl)ethanone]",2100 nM,1.97 nM,
"COc1cc(OC)c(-c2cn3ccc(N[C@H]4C[C@H]5CC[C@@H](C4)N5CC4CCCC4)cc3n2)cc1Cl [Example 443, 2-(5-chloro-2,4-dimethoxyphenyl)-N-((1R,3r,5S)-8-(cyclopentylmethyl)-8-azabicyclo[3.2.1]octan-3-yl)imidazo[1,2-a]pyridin-7-amine]",820 nM,17.3 nM,
"COc1cc(OC)c(-c2cn3ccc(N[C@H]4CC[C@@H](NCc5ccc(C#N)cc5)CC4)cc3n2)cc1Cl [Example 403, 4-((((1s,4s)-4-((2-(5-chloro-2,4-dimethoxyphenyl)imidazo[1,2-a]pyridine-7-yl)amino)cyclohexyl)amino)methyl) benzonitrile]",750 nM,15.1 nM,
"COc1cc(OC)c(-c2cn3ccc(N4CCN(c5nccc(N6CCN(C(=O)Cc7ccccc7)CC6)n5)CC4)cc3n2)cc1Cl [Example 382, 1-(4-(2-(4-(2-(5-chloro-2,4-dimethoxyphenyl)imidazo[1,2-a]pyridin-7-yl)piperazin-1-yl)pyrimidin-4-yl)piperazin-1-yl)-2-phenylethanone dihydrochloride]",,31.7 nM,680 nM
"COc1cc(OC)c(-c2cn3ccc(N4CCN(C(=O)c5ccccc5O)CC4)cc3n2)cc1Cl [Example 314, (4-(2-(5-chloro-2,4-dimethoxyphenyl)imidazo[1,2-a]pyridin-7-yl)piperazin-1-yl)(2-hydroxyphenyl)methanone]",1700 nM,7.29 nM,
"COc1ccc(N2CCN(c3ccn4cc(-c5cc(Cl)c(OC)cc5OC)nc4c3)CC2)nc1 [Example 321, 2-(5-chloro-2,4-dimethoxyphenyl)-7-(4-(5-methoxypyridin-2-yl)piperazin-1-yl)imidazo[1,2-a]pyridine]",870 nM,87.4 nM,
"COc1cc(OC)c(-c2cn3ccc(N4CCCN(Cc5ccncc5)CC4)cc3n2)cc1Cl [Example 388, 2-(5-chloro-2,4-dimethoxyphenyl)-7-(4-(pyridin-4-ylmethyl)-1,4-diazepan-1-yl)imidazo[1,2-a]pyridine dihydrochloride]",,5.05 nM,560 nM
"COc1cc(OC)c(-c2cn3ccc(NC4CCN(Cc5csc([N+](=O)[O-])c5)CC4)cc3n2)cc1Cl [Example 324, 2-(5-chloro-2,4-dimethoxyphenyl)-N-(1-((5-nitrothiophen-3-yl)methyl)piperidin-4-yl)imidazo[1,2-a]pyridin-7-amine]",590 nM,33.9 nM,
"COc1cc(OC)c(-c2cn3ccc(N4CCN(S(C)(=O)=O)C(C)C4)cc3n2)cc1Cl (centres unmarked) [Example 312, 2-(5-chloro-2,4-dimethoxyphenyl)-7-(3-methyl-4-(methylsulfonyl)piperazin-1-yl)imidazo[1,2-a]pyridine]",2500 nM,3.81 nM,
"COc1cc(OC)c(-c2cn3ccc(N[C@H]4C[C@H]5CC[C@@H](C4)N5Cc4ccncc4)cc3n2)cc1Cl [Example 448, 2-(5-chloro-2,4-dimethoxyphenyl)-N-((1R,3r,5S)-8-(pyridin-4-ylmethyl)-8-azabicyclo[3.2.1]octan-3-yl)imidazo[1,2-a]pyridin-7-amine]",340 nM,22.6 nM,
"COc1cc(OC)c(-c2cn3ccc(N4CCN(c5ccnc(N6CCC(O)C6)n5)CC4)cc3n2)cc1Cl (centres unmarked) [Example 346, 1-(4-(4-(2-(5-chloro-2,4-dimethoxyphenyl)imidazo[1,2-a]pyridin-7-yl)piperazin-1-yl)pyrimidin-2-yl)pyrrolidin-3-ol]",,15.3 nM,590 nM
"COc1cc(OC)c(-c2cn3ccc(N4CCN(c5cnc(N6CCC(N)CC6)nc5)CC4)cc3n2)cc1Cl [Example 350, 1-(5-(4-(2-(5-chloro-2,4-dimethoxyphenyl)imidazo[1,2-a]pyridin-7-yl)piperazin-1-yl)pyrimidin-2-yl)piperidin-4-amine]",680 nM,7.35 nM,
"COc1cc(OC)c(-c2cn3ccc(N[C@H]4CC[C@@H](NCc5ccc(F)cc5)CC4)cc3n2)cc1Cl [Example 326, cis-N^1-(2-(5-chloro-2,4-dimethoxyphenyl)imidazo[1,2-a]pyridin-7-yl)-N^4-(4-fluorobenzyl)cyclohexane-1,4-diamine]",660 nM,20.3 nM,
"COc1cc(OC)c(-c2cn3ccc(N4CC[C@H](NC(C)c5ccncc5)C4)cc3n2)cc1Cl (stereo partly drawn) [Example 407, (3S)-1-(2-(5-chloro-2,4-dimethoxyphenyl)imidazo[1,2-a]pyridin-7-yl)-N-(1-(pyridin-4-yl)ethyl)pyrrolidin-3-amine dihydrochloride]",,7.7 nM,950 nM
"COc1cc(OC)c(-c2cn3ccc(N4CCN(Cc5ccncc5F)CC4)cc3n2)cc1Cl [Example 336, 2-(5-chloro-2,4-dimethoxyphenyl)-7-(4-((3-fluoropyridin-4-yl)methyl)piperazin-1-yl)imidazo[1,2-a]pyridine]",970 nM,16.1 nM,
"COc1cc(OC)c(-c2cn3ccc(N4CCN(c5cnc(N6CCN(S(=O)(=O)C7CC7)CC6)nc5)CC4)cc3n2)cc1Cl [Example 369, 2-(5-chloro-2,4-dimethoxyphenyl)-7-(4-(2-(4-(cyclopropylsulfonyl)piperazin-1-yl)pyrimidin-5-yl)piperazin-1-yl)imidazo[1,2-a]pyridine 2,2,2-trifluoroacetate]",630 nM,57.2 nM,
"COc1cc(OC)c(-c2cn3ccc(N4CCN(c5nccc(N6CCOCC6)n5)CC4)cc3n2)cc1Cl [Example 363, 4-(2-(4-(2-(5-chloro-2,4-dimethoxyphenyl)imidazo[1,2-a]pyridin-7-yl)piperazin-1-yl)pyrimidin-4-yl)morpholine]",490 nM,26.5 nM,
"COc1cc(OC)c(-c2cn3ccc(N4CCN(c5cnc(N6CCC(N)C6)nc5)CC4)cc3n2)cc1Cl (centres unmarked) [Example 378, 1-(5-(4-(2-(5-chloro-2,4-dimethoxyphenyl)imidazo[1,2-a]pyridin-7-yl)piperazin-1-yl)pyrimidin-2-yl)pyrrolidin-3-amine dihydrochloride]",,22.8 nM,680 nM
"COc1cc(OC)c(-c2cn3ccc(N4CCCN(c5ncccn5)CC4)cc3n2)cc1Cl [Example 368, 2-(5-chloro-2,4-dimethoxyphenyl)-7-(4-(pyrimidin-2-yl)-1,4-diazepan-1-yl)imidazo[1,2-a]pyridine]",990 nM,15.7 nM,
"COc1cc(OC)c(-c2cn3ccc(N4CCCN(c5cncnc5)CC4)cc3n2)cc1Cl [Example 383, 2-(5-chloro-2,4-dimethoxyphenyl)-7-(4-(pyrimidin-5-yl)-1,4-diazepan-1-yl)imidazo[1,2-a]pyridine]",880 nM,13.8 nM,
"COc1cc(OC)c(-c2cn3ccc(N4CC[C@H](NCC5CCN(C(=O)OC(C)(C)C)CC5)C4)cc3n2)cc1Cl [Example 400, (S)-tert-butyl 4-(((1-(2-(5-chloro-2,4-dimethoxyphenyl)imidazo[1,2-a]pyridine-7-yl)pyrrolidin-3-yl)amino)methyl)piperidine-1-carboxylate]",930 nM,7.15 nM,
"COc1cc(OC)c(-c2cn3ccc(N4CCN(c5nccc(N6CCCC(O)C6)n5)CC4)cc3n2)cc1Cl (centres unmarked) [Example 376, 1-(2-(4-(2-(5-chloro-2,4-dimethoxyphenyl)imidazo[1,2-a]pyridin-7-yl)piperazin-1-yl)pyrimidin-4-yl)piperidin-3-ol]",980 nM,66.5 nM,
"COc1cc(OC)c(-c2cn3ccc(N4CCN(c5ccnc(NCC(C)O)n5)CC4)cc3n2)cc1Cl (centres unmarked) [Example 399, 1-((4-(4-(2-(5-chloro-2,4-dimethoxyphenyl)imidazo[1,2-a]pyridine-7-yl)piperazin-1-yl)pyrimidin-2-yl)amino)propan-2-ol]",660 nM,11.7 nM,
"CNC1CCN(c2ncc(N3CCN(c4ccn5cc(-c6cc(Cl)c(OC)cc6OC)nc5c4)CC3)cn2)C1 (centres unmarked) [Example 401, 1-(5-(4-(2-(5-chloro-2,4-dimethoxyphenyl)imidazo[1,2-a]pyridin-7-yl)piperazin-1-yl)pyrimidin-2-yl)-N-methylpyrrolidin-3-amine dihydrochloride]",,6.81 nM,500 nM
"COc1cc(OC)c(-c2cn3ccc(N[C@H]4CC[C@H](Nc5nccc(N6CCN(C)CC6)n5)CC4)cc3n2)cc1Cl [Example 398, (1r,4r)-N^1-(2-(5-chloro-2,4-dimethoxyphenyl)imidazo[1,2-a]pyridin-7-yl)-N^4-(4-(4-methylpiperazin-1-yl)pyrimidin-2-yl)cyclohexane-1,4-diamine]",440 nM,23.3 nM,
